Reference: article PMC4557015, “Structure-Activity Relationships of the Bioactive Thiazinoquinone Marine Natural Products Thiaplidiaquinones A and B” (Marine Drugs, 2015)
Where two headings read alike, the source gives them in different places.

Experiments:
[1] = system: Plasmodium falciparum, FcM29-Cameroon strain (chloroquine-resistant); assay: In vitro antimalarial activity, P. falciparum FcM29-Cameroon strain; assay type: cell-based; details: for IC50: Plasmodium falciparum, read-out: P. falc. IC50; for activity against P. falciparum (in words): FcM29-Cameroon strain
Excerpt: (§1) Detailed protocols have been reported elsewhere.

[2] = target: Trypanosoma brucei farnesyltransferase (Trypanosoma brucei, UniProt Q57U08+Q580J3); assay: Anti-farnesyltransferase assay (T. brucei); assay type: biochemical
Excerpt: as §1

[3] = target: Human farnesyltransferase (Homo sapiens, UniProt P49354+P49356); assay: Anti-farnesyltransferase assay (human); assay type: biochemical; details: average of three assays; read-out: FTase (H) IC50
Excerpt: as §1

[4] = system: MDA-MB-435; assay: NCI-60 five-dose in vitro cytotoxicity screening, MDA-MB-435; assay type: cell-based, human; details: NCI 5-dose testing
Excerpt: as §1

[5] = system: MALME-3M; assay: NCI-60 five-dose in vitro cytotoxicity screening, MALME-3M; assay type: cell-based, human; details: NCI 5-dose testing
Excerpt: as §1

[6] = system: Jurkat cells; assay: Jurkat cell cytotoxicity assay, Annexin V-FITC/PI flow cytometry; assay type: cell-based, human; details: for mode of Jurkat cell death (Annexin V-FITC/PI): 100 μM, 24 h treatment, flow cytometry; for concentration at which toxicity towards Jurkat cells is apparent: 24 h
Description: In addition, by using propidium iodide (PI) as a probe, from the observation of treated cells having a significant loss of nuclear DNA in combination with ROS production it was concluded that both 1 and 2 were inducing apoptosis. […] For our assessment of the mechanism of cell death, we used the combination of Annexin V-FITC and PI stains to allow us to evaluate the ability of test compounds 1–6 to induce apoptosis or necrosis (or both) in Jurkat cells. After 24 h treatment in the presence of 100 μM of each test compound, cells were analyzed by flow cytometry to identify live (AnV^−/PI^−), apoptosing (AnV^+/PI^−), necrotic (AnV^−/PI^+) and late apoptotic (AnV^+/PI^+) cells.
Cells were resuspended in cRPMI at 1 × 10^6 cells/mL and 100 μL cells added to individual wells of a 96-well round bottom plate. Compounds were made up in DMSO to 10 mM for a stock solution. A ten-fold dilution series was made for each stock solution in cRPMI from 1 mM to 10 nM and 10 μL of each added to triplicate wells, for final concentrations of 100 μM to 1 nM, along with corresponding DMSO controls. The cells plus compounds were then incubated for 24 h at 37 °C. The cells were washed in ice-cold Annexin V binding buffer (200 mL PBS with 10 mM HEPES, 140 mM NaCl and 2.5 mM CaCl2). The cell pellets were labelled with 5 μL of Annexin V-FITC (BD Pharmingen) for 15 min at 4 °C. Cells were washed again with ice-cold Annexin V buffer and labelled with 10 μL of 5 μg/mL PI for 7 min at 4 °C. Cells were washed and resuspended in FACS buffer, and Annexin V/PI staining analysed using flow cytometry. Annexin V positive cells were undergoing apoptosis, while PI positive cells were necrotic. Double positive cells were dead, while double negative cells were live cells.

[7] = system: Jurkat cells; assay: Intracellular ROS, DHR123 flow cytometry; assay type: cell-based, human; details: top test concentration of 100 μM, 30 min
Description: In the present study, the presence of ROS in Jurkat cells was determined using dihydrorhodamine 123 (DHR123), a cell permeable probe that becomes fluorescent when oxidized to rhodamine 123 in the presence of ROS [7]. Once the cells were loaded with DHR123, they were then treated with test compounds at a range of concentrations, and the mean fluorescent intensity determined by flow cytometry.
Cells were resuspended in HBSS at 1 × 10^6 cells/mL and 100 μL cells added to individual wells of a 96-well round bottom plate. DHR123 was added to the wells for a final concentration of 500 nM per well and cells incubated for 5 min to allow uptake of DHR123. Compounds were made up in DMSO to 10 mM for a stock solution. A ten-fold dilution series was made for each stock solution in HBSS from 1 mM to 10 nM and 10 μL of each added to triplicate wells, for final concentrations of 100 μM to 1 nM, along with corresponding DMSO controls. The assay was incubated at 37 °C for 30 min, and the cells were washed and resuspended in FACS buffer (PBS with 0.1% BSA and 0.2% sodium azide). Intracellular ROS was measured by flow cytometry analysis of DHR123 uptake.

[8] = system: Plasmodium falciparum, NF54 strain (chloroquine sensitive), IEF stage; assay: In vitro antimalarial activity, P. falciparum NF54 strain; assay type: cell-based
Excerpt: as §1

[9] = system: Pf K1 strain; set-up: method as in PMID 21958335; details: read-out: antimalarial activity IC50; cited from earlier work
[10] = system: human leukemia T cell line Jurkat; set-up: method as in PMID 15857147; details: standard cell viability assay; read-out: cytotoxicity towards Jurkat cells IC50; cited from earlier work
[11] = system: Jurkat cells; set-up: method as in PMID 15857147; details: relative to untreated cells; cited from earlier work
[12] = FcM29-Cameroon strain (chloroquine-resistant), average of three assays
[13] = average of three assays, read-out: FTase (T. b.) IC50
[14] = NF54 strain (chloroquine sensitive), IEF stage, average of two independent assays, read-out: P. falc. IC50

Trypanosoma brucei farnesyltransferase, sequence (Q580J3 entry or part of it): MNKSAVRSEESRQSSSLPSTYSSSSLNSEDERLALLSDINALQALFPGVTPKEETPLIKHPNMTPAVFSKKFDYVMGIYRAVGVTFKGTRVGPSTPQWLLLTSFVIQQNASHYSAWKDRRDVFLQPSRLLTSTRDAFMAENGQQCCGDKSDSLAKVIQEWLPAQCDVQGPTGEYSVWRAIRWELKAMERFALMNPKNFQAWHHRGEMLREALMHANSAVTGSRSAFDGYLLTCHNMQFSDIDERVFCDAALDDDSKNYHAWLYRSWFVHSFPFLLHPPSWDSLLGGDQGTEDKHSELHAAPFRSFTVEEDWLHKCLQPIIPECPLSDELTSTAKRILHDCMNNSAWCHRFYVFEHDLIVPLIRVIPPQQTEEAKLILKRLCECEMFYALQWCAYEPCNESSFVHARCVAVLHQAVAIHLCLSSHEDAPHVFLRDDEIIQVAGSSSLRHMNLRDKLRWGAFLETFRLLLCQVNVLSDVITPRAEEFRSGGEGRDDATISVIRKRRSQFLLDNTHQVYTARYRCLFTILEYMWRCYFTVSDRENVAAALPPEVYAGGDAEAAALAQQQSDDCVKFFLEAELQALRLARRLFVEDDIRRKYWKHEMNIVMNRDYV
Trypanosoma brucei farnesyltransferase, sequence (Q57U08 entry or part of it): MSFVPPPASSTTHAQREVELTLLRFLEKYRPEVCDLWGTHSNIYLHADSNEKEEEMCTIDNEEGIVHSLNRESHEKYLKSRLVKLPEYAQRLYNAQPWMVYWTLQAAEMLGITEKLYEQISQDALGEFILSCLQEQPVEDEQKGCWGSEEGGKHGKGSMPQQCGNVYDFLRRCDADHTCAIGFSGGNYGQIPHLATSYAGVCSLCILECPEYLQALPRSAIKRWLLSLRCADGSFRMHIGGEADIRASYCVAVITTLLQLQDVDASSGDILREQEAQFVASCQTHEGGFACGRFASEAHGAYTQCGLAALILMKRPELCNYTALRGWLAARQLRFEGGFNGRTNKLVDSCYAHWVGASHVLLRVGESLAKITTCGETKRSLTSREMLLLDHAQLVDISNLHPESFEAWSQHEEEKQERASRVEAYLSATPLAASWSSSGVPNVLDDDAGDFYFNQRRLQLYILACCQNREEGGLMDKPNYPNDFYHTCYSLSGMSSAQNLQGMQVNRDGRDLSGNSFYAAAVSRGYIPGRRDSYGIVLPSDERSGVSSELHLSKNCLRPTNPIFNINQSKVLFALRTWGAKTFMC

## CC(C)=CCC/C(C)=C/Cc1cc(O)cc2c1OC(/C=C(\C)CCC=C(C)C)C1=C2C(=O)C2=C(NCCS2(=O)=O)C1=O (centres unmarked) [Compound 3]
[1]; [12]
  IC50: 4560 ± 760 nM
[2]; [13]
  IC50: 220 ± 34 nM
[3]
  IC50: 140 ± 1.7 nM
[4]; Homo sapiens
  GI50: 52 nM
  LC50: 660 nM
[4]
  TGI: 180 nM
[5]; Homo sapiens
  GI50: 100 nM
  LC50: 3400 nM
[5]
  TGI: 600 nM
[6]
  mode of Jurkat cell death (Annexin V-FITC/PI): cell death by necrosis
  concentration at which toxicity towards Jurkat cells is apparent: ~100 µM
[7]
  accumulation of intracellular ROS (DHR123 fluorescence): the most potent generator of intracellular ROS

## CC(C)=CCC/C(C)=C/Cc1cc2c(cc1O)C1=C(C(=O)C=CC1=O)C(/C=C(\C)CCC=C(C)C)O2 (centres unmarked) [Compound 6]
[8]; [14]
  IC50: 2300 nM
[2]
  IC50: 6160 ± 1400 nM
[3]
  IC50: 1640 ± 300 nM
[6]
  mode of Jurkat cell death (Annexin V-FITC/PI): dominated by late stage apoptosis (PI^+/AV^+)

## CCN(CC)CCCC(C)Nc1ccnc2cc(Cl)ccc12 (centres unmarked) [Chloroquine, reference compound]
[1]
  IC50: 450 nM
[8]; NF54, read-out: P. falc. IC50
  IC50: 6.3 nM

## COC1=CC(=O)C2=C(C1=O)C(/C=C(\C)CCC=C(C)C)Oc1cc(OC)c(O)c(C/C=C(\C)CCC=C(C)C)c12 (centres unmarked) [scabellone B]
[9]
  IC50: 4800 nM

## CC(C)=CCC/C(C)=C/Cc1cc2c(cc1O)C1=C(C(=O)C3=C(NCCS3(=O)=O)C1=O)C(/C=C(\C)CCC=C(C)C)O2 (centres unmarked) [Compound 2, thiaplidiaquinone B]
[1]
  activity against P. falciparum (in words): inactive
[1]; [12]
  IC50: > 17000 nM
[2]; [13]
  IC50: 3040 ± 300 nM
[3]
  IC50: 1220 ± 68 nM
[6]
  mode of Jurkat cell death (Annexin V-FITC/PI): cell death almost exclusively via apoptosis
  concentration at which toxicity towards Jurkat cells is apparent: ~100 µM
[7]
  accumulation of intracellular ROS (DHR123 fluorescence): only modest levels of accumulation of intracellular ROS
[10]
  IC50: ~3000 nM
[11]
  accumulation of intracellular ROS, % of cells: 93%

## CC(C)=CCC/C(C)=C/Cc1cc(O)cc2c1OC(/C=C(\C)CCC=C(C)C)C1=C2C(=O)C=CC1=O (centres unmarked) [Compound 5]
[8]; [14]
  IC50: 2200 nM
[2]; [13]
  IC50: 3900 ± 600 nM
[3]
  IC50: 3700 ± 600 nM
[6]
  mode of Jurkat cell death (Annexin V-FITC/PI): dominated by late stage apoptosis (PI^+/AV^+)

## CC(C)=CCC/C(C)=C/Cc1cc(O)cc2c1OC(/C=C(\C)CCC=C(C)C)C1=C2C(=O)C2=C(C1=O)S(=O)(=O)CCN2 (centres unmarked) [Compound 1, thiaplidiaquinone A]
[1]
  activity against P. falciparum (in words): inactive
[1]; [12]
  IC50: > 17000 nM
[2]; [13]
  IC50: 740 ± 200 nM
[3]
  IC50: 780 ± 170 nM
[6]
  mode of Jurkat cell death (Annexin V-FITC/PI): inducing both necrosis (PI^+/AV^−) and apoptosis (PI^−/AV^+)
  concentration at which toxicity towards Jurkat cells is apparent: ~100 µM
[7]
  accumulation of intracellular ROS (DHR123 fluorescence): only modest levels of accumulation of intracellular ROS
[10]
  IC50: ~3000 nM
[11]
  accumulation of intracellular ROS, % of cells: 97%

## CSCC[C@H](NC(=O)c1ccc(NC[C@@H](N)CS)cc1-c1ccccc1)C(=O)O [FTI 276, reference compound]
[2]; [13]
  IC50: 10 ± 2 nM

## CC(C)=CCC/C(C)=C/Cc1cc2c(cc1O)C1=C(C(=O)C3=C(C1=O)S(=O)(=O)CCN3)C(/C=C(\C)CCC=C(C)C)O2 (centres unmarked) [Compound 4]
[1]; [12]
  IC50: 4390 ± 770 nM
[2]; [13]
  IC50: 98 ± 8 nM
[3]
  IC50: 54 ± 5 nM
[6]
  mode of Jurkat cell death (Annexin V-FITC/PI): dominantly via apoptosis
  concentration at which toxicity towards Jurkat cells is apparent: ~100 µM
